Patent publication US20090047684A1, “Gene and protein expression profiles associated with the therapeutic efficacy of irinotecan” (Nuclea Biomarkers, LLC, priority 2006, published 2009)
Counter-ions that a name gives are not always drawn.

System: tumor cells derived from patients who were responsive to treatment with irinotecan
Test: xenograft of patient-derived tumor cells in SCID mice treated with irinotecan
Assay type: in vivo
Settings: SCID mice with established xenograft tumors, injected with 200 mg/kg of irinotecan
Procedure: Positive expression also was evaluated using a xenograft array. SCID mice were injected with tumor cells derived from patients who were responsive to treatment with irinotecan, and the tumors were allowed to grow in the mice. Once the tumors were established, the mice were injected with 200 mg/kg of irinotecan, and the mice were monitored to observe responsiveness to the drug. […] Prior to treatment with the drug, samples of the tumors were extracted from the mice and used to make a TMA.

`CCc1c2c(nc3ccc(OC(=O)N4CCC(N5CCCCC5)CC4)cc13)-c1cc3c(c(=O)n1C2)COC(=O)[C@]3(O)CC` [irinotecan, Irinotecan hydrochloride] was tested, and the “responsiveness to the drug: effect on tumors formed in the SCID mice” value was “reduced or eliminated”.
